Literature values in patent US20040156920A1, “Extracts from plant and non-plant biomass and uses thereof” (priority 2000, published 2004).
Values belong to the compound of their own block, whether it stands above or below them.

Columns and labels:
[1] = system: classical complement pathway
human blood PMN cells = system: human blood PMN cells; design: phagocytosis at higher concentration: dose or concentration left out as unconfirmed
male albino rats = conditions: 20 mg/kg body weight daily subcutaneous

IC50 [1]: 35 µM
Compound: CC1(C)[C@@H](O)CC[C@]2(C)[C@H]3C(=O)C=C4[C@H]5C[C@@](C)(C(=O)O)CC[C@]5(C)CC[C@@]4(C)[C@]3(C)CC[C@@H]12 [Beta-glycyrrhetinic acid]

Compound: Wheat germ agglutinin
phagocytosis at higher concentration (human blood PMN cells): strongly inhibited phagocytosis
promotion of phagocytosis compared to Zymosan-A control (human blood PMN cells; 0.5-1.0 mg/ml): 1.8 times

Compound: CCCCCCCCCCCC1=C(O)C(=O)C=C(O)C1=O [embelin]
sperm count and other fertility parameters (male albino rats): inhibition of sperm count and other fertility parameters
